BigSolDB 2.1

NC(=O)N/N=C/c1ccc([N+](=O)[O-])o1
solubility (mole fraction)
Conditions | in DMF | in acetone | in acetonitrile | in ethanol | in ethyl acetate | in formamide | in isopropanol | in methanol | in n-propanol | in water
278.15 K | 0.0194 | 0.000291 | 7.32e-05 | 5.89e-05 | 7.69e-05 | 0.00131 | 2.66e-05 | 0.000137 | 3.6e-05 | 4.23e-06
283.15 K | 0.0202 | 0.000339 | 9.44e-05 | 7.3e-05 | 8.31e-05 | 0.00154 | 3.27e-05 | 0.000168 | 4.98e-05 | 5.75e-06
288.15 K | 0.0207 | 0.00038 | 0.000116 | 8.98e-05 | 9.59e-05 | 0.00178 | 4.03e-05 | 0.000198 | 5.29e-05 | 8.03e-06
293.15 K | 0.0223 | 0.000435 | 0.000146 | 0.000112 | 0.000116 | 0.00205 | 5.09e-05 | 0.000238 | 6.62e-05 | 1.07e-05
298.15 K | 0.023 | 0.000501 | 0.000168 | 0.000136 | 0.00013 | 0.0024 | 6.47e-05 | 0.000284 | 8.61e-05 | 1.27e-05
303.15 K | 0.0255 | 0.00056 | 0.000204 | 0.000165 | 0.000151 | 0.00273 | 8.79e-05 | 0.000338 | 0.000108 | 1.53e-05
308.15 K | 0.0265 | 0.000641 | 0.000246 | 0.000203 | 0.000172 | 0.00313 | 0.000116 | 0.000404 | 0.000139 | 2.05e-05
313.15 K | 0.0279 | 0.000749 | 0.000293 | 0.000247 | 0.000202 | 0.00359 | 0.000151 | 0.000478 | 0.000164 | 2.68e-05
